Among the data in PubChem BioAssay (NCI) are TGI values, retold here.

Test systems include DMS 273 small cell lung; CAKI-1 renal; SNB-78 CNS; BT-549 breast; HOP-92 NSCLC; DMS 114 small cell lung; M19-MEL melanoma; A498 renal; KM20L2 colon; OVCAR-4 ovarian; DLD-1 colon; LXFL 529 NSCLC.
Test in all cases: inhibition of tumour cell growth, NCI panel, 48 h

Each structure is given as a SMILES string.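 Dose response: 5 concentrations. Exposure: 48 h. Format: 96-well plates. Endpoint: linear interpolation; highest concentration if not reached. TGI marks complete inhibition of growth.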

Take `CC1=C(N2CC2)C(=O)C(C)=C(N2CC2)C1=O`: the TGI in the assay on DMS 273 small cell lung was 1380 nM; with CAKI-1 renal, 1370 nM; in the assay with SNB-78 CNS, more than 100000 nM; in the assay with BT-549 breast, 5140 nM; in the assay with HOP-92 NSCLC it was 988 nM; in the assay with DMS 114 small cell lung, 471 nM. Besides, the TGI in the assay on M19-MEL melanoma stood at 920 nM; in the assay with A498 renal, 403 nM; in the assay with KM20L2 colon, 568 nM; in the assay on OVCAR-4 ovarian, 2020 nM; in the assay with DLD-1 colon, 829 nM; with LXFL 529 NSCLC it was 431 nM.

As to `N#CCCN(c1ccc(C=Nc2ccc(C(=O)O)cc2)cc1)S(=O)(=O)c1ccccc1`, the TGI with DMS 273 small cell lung, in the assay with CAKI-1 renal, in the assay on SNB-78 CNS, in the assay on HOP-92 NSCLC, in the assay on DMS 114 small cell lung and with M19-MEL melanoma was more than 100000 nM each time. Besides, the TGI in the assay on A498 renal, with KM20L2 colon, with OVCAR-4 ovarian, in the assay on DLD-1 colon and in the assay on LXFL 529 NSCLC was more than 100000 nM in each case.
